Source: US20220257620A1, “USE OF CERTAIN PHOSPHATIDYLCHOLINES CONTAINING LONG CHAIN POLYUNSATURATED FATTY ACIDS AS NEUROPROTECTIVE AGENTS” (KANNALIFE SCIENCES, INC., priority 2019, published 2022)

Columns and labels:
[1] = test system: dissociated hippocampal cultures (primary neurons); assay: Neuronal viability assay (CFDA), neuroprotection from 30 mM ethanol; format: cell-based, rat; conditions: Table 3, 5 hour test period, co-treatment with 30 mM ethanol; for EC50: read-out: CFDA (EC50 + SE)
From the text: Pre-coated poly-D-lysine coated plates will be used because of the adherence and survival of hippocampal neurons and glia on this matrix support.
Carboxyfluorescein (CFDA) was used a vital stain for all neuroprotection studies. With the use of the CytoFluor fluorimeter, the CFDA assay was employed to assess the viability of neurons. […] Neuronal specificity is obtained relative to astrocytes because the cleaved dye is extruded extracellularlly by glia with time, while dye in neurons remains intracellular.

[2] = test system: dissociated hippocampal cultures; assay: Cell death assay (propidium iodide), protection from 30 mM ethanol; format: cell-based, rat; conditions: Table 3, 5 hour test period, co-treatment with 30 mM ethanol; for IC50: read-out: Propidium Iodide (IC50 + SE)

Compound | EC50 [1] | IC50 [2] | CFDA (EC50 + SE) [1] | Propidium Iodide (IC50 + SE) [2]
CCCCC/C=C\C/C=C\C/C=C\C/C=C\CCCC(=O)OC[C@H](COP(=O)([O-])OCC[N+](C)(C)C)OC(=O)CCC/C=C\C/C=C\C/C=C\C/C=C\CCCCC [PC 20:4-20:4, 1,2-diarachidonyl-phosphatidylcholine] | 0.001 ± 8e-05 nM | 0.0012 ± 0.00012 nM | – | –
CC/C=C\C/C=C\C/C=C\CCCCCCCC(=O)OC[C@H](COP(=O)([O-])OCC[N+](C)(C)C)OC(=O)CCCCCCC/C=C\C/C=C\C/C=C\CC [PC 18:3-18:3, 1,2-dilinolenoyl-phosphatidylcholine] | 0.202 ± 0.022 nM | 0.204 ± 0.088 nM | – | –
CC/C=C\C/C=C\C/C=C\C/C=C\C/C=C\C/C=C\CCC(=O)OC[C@H](COP(=O)([O-])OCC[N+](C)(C)C)OC(=O)CC/C=C\C/C=C\C/C=C\C/C=C\C/C=C\C/C=C\CC [PC 22:6-22:6] | 0.283 ± 0.046 nM | 0.21 ± 0.053 nM | – | –
CCCCC/C=C\C/C=C\CCCCCCCC(=O)OCC(COP(=O)([O-])OCC[N+](C)(C)C)OC(=O)CCCCCCC/C=C\C/C=C\CCCCC (stereo not shown) [PC 18:2-18:2, 1,2-dilinoleoyl-phosphatidylcholine] | 0.067 ± 0.022 nM | 0.044 ± 0.015 nM | – | –
PC 16:0-18:2 [reference compound] | – | – | Inactive | Inactive
